Reference: PubChem BioAssay AID1963854 (Molecular Pharmacology Branch, DTP, NCI, 2024)

Tested on: 186277-243-T-J2-PDC complex spheroid viability
Assay: Anticancer human tumor 186277-243-T-J2-PDC patient-derived colon adenocarcinoma cell line growth inhibition [POLQ]
Conditions: for IC50: curve of first compound; for viability, T/C: stronger effect = lower value
Summary of the method: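 Three-cell-type spheroids modelling solid tumor plus stroma served as the readout system; POL inhibitors were tested individually and in combination, concentration ranges set by clinical Cmax where known.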

[1] = second compound 0.0316 µM, first compound 0.0316 µM
[2] = second compound 0.0316 µM, first compound 0.1 µM
[3] = second compound 0.0316 µM, first compound 0.316 µM
[4] = second compound 0.0316 µM, first compound 1 µM
[5] = second compound 0.0316 µM, first compound 3.16 µM
[6] = second compound 0.0316 µM, first compound 10 µM
[7] = second compound 0.1 µM, first compound 0.0316 µM
[8] = second compound 0.1 µM, first compound 0.1 µM
[9] = second compound 0.1 µM, first compound 0.316 µM
[10] = second compound 0.1 µM, first compound 1 µM
[11] = second compound 0.1 µM, first compound 3.16 µM
[12] = second compound 0.1 µM, first compound 10 µM
[13] = second compound 0.316 µM, first compound 0.0316 µM
[14] = second compound 0.316 µM, first compound 0.1 µM
[15] = second compound 0.316 µM, first compound 0.316 µM
[16] = second compound 0.316 µM, first compound 1 µM
[17] = second compound 0.316 µM, first compound 3.16 µM
[18] = second compound 0.316 µM, first compound 10 µM
[19] = second compound 1 µM, first compound 0.0316 µM
[20] = second compound 1 µM, first compound 0.1 µM
[21] = second compound 1 µM, first compound 0.316 µM
[22] = second compound 1 µM, first compound 1 µM
[23] = second compound 1 µM, first compound 3.16 µM
[24] = second compound 1 µM, first compound 10 µM
[25] = second compound 3.16 µM, first compound 0.0316 µM
[26] = second compound 3.16 µM, first compound 0.1 µM
[27] = second compound 3.16 µM, first compound 0.316 µM
[28] = second compound 3.16 µM, first compound 1 µM
[29] = second compound 3.16 µM, first compound 3.16 µM
[30] = second compound 3.16 µM, first compound 10 µM
[31] = second compound 10 µM, first compound 0.0316 µM
[32] = second compound 10 µM, first compound 0.1 µM
[33] = second compound 10 µM, first compound 0.316 µM
[34] = second compound 10 µM, first compound 1 µM
[35] = second compound 10 µM, first compound 3.16 µM
[36] = second compound 10 µM, first compound 10 µM
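Further: spheroids exposed to compounds for seven days.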
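Wherever viability, T/C is given: 100% = DMSO vehicle control viability.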

Compound: CNCc1ccc(-c2[nH]c3cc(F)cc4c3c2CCNC4=O)cc1 + Nc1ccc(C#CCN(C(=O)Cc2ncc(C(F)(F)F)cc2C(F)(F)F)c2ccc(F)cc2)nn1
- IC50 (second compound 0.0316 µM): > 10 µM
- IC50 (second compound 0.1 µM): > 10 µM
- IC50 (second compound 0.316 µM): > 10 µM
- IC50 (second compound 1 µM): > 10 µM
- IC50 (second compound 3.16 µM): > 10 µM
- IC50 (second compound 10 µM): > 10 µM
- viability, T/C [1]: 121%
- viability, T/C [2]: 104%
- viability, T/C [3]: 129%
- viability, T/C [4]: 85.5%
- viability, T/C [5]: 112%
- viability, T/C [6]: 126%
- viability, T/C [7]: 101%
- viability, T/C [8]: 96.7%
- viability, T/C [9]: 108%
- viability, T/C [10]: 95.5%
- viability, T/C [11]: 125%
- viability, T/C [12]: 121%
- viability, T/C [13]: 100%
- viability, T/C [14]: 109%
- viability, T/C [15]: 103%
- viability, T/C [16]: 102%
- viability, T/C [17]: 105%
- viability, T/C [18]: 116%
- viability, T/C [19]: 92.4%
- viability, T/C [20]: 118%
- viability, T/C [21]: 95%
- viability, T/C [22]: 111%
- viability, T/C [23]: 98.7%
- viability, T/C [24]: 132%
- viability, T/C [25]: 96.9%
- viability, T/C [26]: 118%
- viability, T/C [27]: 100%
- viability, T/C [28]: 99.6%
- viability, T/C [29]: 111%
- viability, T/C [30]: 110%
- viability, T/C [31]: 108%
- viability, T/C [32]: 106%
- viability, T/C [33]: 106%
- viability, T/C [34]: 103%
- viability, T/C [35]: 88.2%
- viability, T/C [36]: 116%

Compound: O=c1[nH]cc(F)c(=O)[nH]1 + Nc1ccc(C#CCN(C(=O)Cc2ncc(C(F)(F)F)cc2C(F)(F)F)c2ccc(F)cc2)nn1
- IC50 (second compound 0.0316 µM): > 10 µM
- IC50 (second compound 0.1 µM): > 10 µM
- IC50 (second compound 0.316 µM): > 10 µM
- IC50 (second compound 1 µM): > 10 µM
- IC50 (second compound 3.16 µM): > 10 µM
- IC50 (second compound 10 µM): > 10 µM
- viability, T/C [1]: 102%
- viability, T/C [2]: 94.3%
- viability, T/C [3]: 103%
- viability, T/C [4]: 102%
- viability, T/C [5]: 97.4%
- viability, T/C [6]: 64.8%
- viability, T/C [7]: 97.7%
- viability, T/C [8]: 112%
- viability, T/C [9]: 97.4%
- viability, T/C [10]: 107%
- viability, T/C [11]: 103%
- viability, T/C [12]: 67.3%
- viability, T/C [13]: 95.9%
- viability, T/C [14]: 103%
- viability, T/C [15]: 101%
- viability, T/C [16]: 88.3%
- viability, T/C [17]: 97.3%
- viability, T/C [18]: 65.6%
- viability, T/C [19]: 98.8%
- viability, T/C [20]: 92.6%
- viability, T/C [21]: 109%
- viability, T/C [22]: 87.6%
- viability, T/C [23]: 107%
- viability, T/C [24]: 63.1%
- viability, T/C [25]: 103%
- viability, T/C [26]: 96.5%
- viability, T/C [27]: 109%
- viability, T/C [28]: 106%
- viability, T/C [29]: 104%
- viability, T/C [30]: 61%
- viability, T/C [31]: 109%
- viability, T/C [32]: 106%
- viability, T/C [33]: 101%
- viability, T/C [34]: 102%
- viability, T/C [35]: 90.6%
- viability, T/C [36]: 52.4%
